Experimental data: patent US20250345356A1, “TIRAPAZAMINE COMPOSITIONS AND METHODS” (priority 2024, published 2025)
Where two headings read alike, the source gives them in different places.

Experiments:
HCC = details: cited from earlier work
[1] = tested on: advanced head and neck cancer; details: intent-to-treat, with radiotherapy 70 Gy; cited from earlier work
[2] = PK of TPZ and metabolites SR4317 and SR4330 after intra-arterial injection of TPZ in NS vs HPβCD; assay type: in vivo, Sprague Dawley rats; details: for dose proportionality of plasma concentrations: 3.33 mg/kg vs. 7 mg/kg in either solvent; for reduction of plasma concentrations in the curve of HPβCD than that of NS: after TPZ in 1% HPβCD vs NS; for AUClast, HβC Mean / Cmax, HβC Mean / AUClast, Normal Saline (NS) Mean / Cmax, Normal Saline (NS) Mean: rats
Text: Purpose of the study: To evaluate the pharmacokinetics (PK) of tirapazamine and its metabolites, SR4317 and SR4330 [Graham, M A et al. Cancer Chemother. Pharmacol. (1997) 40 (1): 1-10], after injection of TPZ in 1% HPβCD or normal saline.
Animals: Twenty-four female (12) and male (12) Sprague Daley (SD) rats, weight 200-250 grams, respectively, with femoral artery and jugular vein cannulated, were purchased from, Taconic. Two extra cannulated male and female rates were used to test tolerability with buffer. Each rate was housed individually to safeguard the vessel catheters.
The study parameters are shown in Table 22. began after a 3-day period of adjustment to the animal facility. The study compound was injected into the femoral artery catheter (FAC at 2-1 m (by slow injection. Blood samples were collected from a jugular vein catheter (JVC) at 6 timepoints: 0 (baseline) and after drug administration at 15 and 30 minutes, 1 hr, 2 hr, and 6 hours. The volume of blood sample for each time point was approximately 0.6 mL. Plasma samples were collected in tubes containing sodium heparin as anti-coagulant. Plasma was prepared and frozen in −80° C. Rats were euthanized after the last blood sample (euthanized after the 6 hr time point).
Male rats were around 250 grams, and female 200 grams. There were 8 groups with Groups 1-4 females, and […]. Each group had 3 rats. TPZ was dissolved in NS or […] at a concentration 0.7 mg/mL.
The concentrations of TPZ and its metabolites, SR4317 and SR4330, in rat plasma samples were analyzed using liquid chromatography Tandem Mass Spectrometry (LC-MS) by Primera Analytical Solutions Corp (Princeton, NJ). Standards for TPZ, SR4317 and SR4330 were provided by Teclison, Inc. (Princeton, NJ) for calibration. All analytical data were reviewed for completeness and accuracy. Data transferred manually was cross-checked against source data which was part of the study raw data.
LC-MS analysis was conducted with Sciex 4000 with a Shimadzu LC-30 System.
The concentration data was imported and plotted with SAS program as ADPC (Analysis Dataset of Pharmacokinetics Concentrations) dataset. PK parameters calculated based on ADPC were output as an Analysis Dataset of Pharmacokinetics Parameters (ADPP) dataset.
PK parameters of each profile were calculated by non-compartmental analysis using SAS programming. BLQ (Below the Limit of Quantification) observation prior to the first measurable concentration was imputed as zero, otherwise, the BLQ observation was left as missing.
An apparent first-order terminal elimination rate constant (Kel) was calculated by linear least-squares regression analysis using at least three points (excluding Cmax) in the terminal log-linear phase. Uniform weighting was adopted when performing regression analysis. Linear-up/log-down approach was utilized to calculate AUC.
A linear model was built to evaluate the effect of solution on the PK parameters, adjusting for sex and dose. The model included sex (F, M), solution type (Normal saline, Hydroxypropyl-beta-Cyclodextrin “HP-beta-CD”), and dose (mg) as fixed effects. Sex and solution type are categorical variables (meaning a variable based on a qualitative, not numerical, property) and dose is a continuous variable (meaning a random variable that can take on an infinite number of values within a certain interval that represents measurable data). Separate models were built for each combination of analyte (TPZ, SR4317 and SR4330) and PK parameters (AUClast and Cmax) using the BY statement, which divides the observations from an input data set into groups for processing.
The difference of lease squared means between solution types was estimated. 95% confidence intervals (CI), and p-values for the difference were presented. The significance level (alpha) was set at 0.05, meaning that a p-value less than 0.05 was considered statistically significant.

[3] = mice, cited from earlier work
[4] = 1-week intravenous study, single dose level of 1 g; cited from earlier work
[5] = cited from earlier work
[6] = intra-arterial TPZ 3.33 mg/kg in HPβCD
[7] = intra-arterial TPZ 3.33 mg/kg in NS
[8] = intra-arterial TPZ 7 mg/kg in HPβCD
[9] = intra-arterial TPZ 7 mg/kg in NS

Compound	AUClast HβC/NS Ratio (%) ([2]; 3.33 mg/kg)	Cmax HβC/NS Ratio (%) ([2]; 3.33 mg/kg)	dose proportionality of plasma concentrations [2]	AUClast HβC/NS Ratio (%) ([2]; 7 mg/kg)	Cmax HβC/NS Ratio (%) ([2]; 7 mg/kg)	reduction of plasma concentrations in the curve of HPβCD than that of NS [2]	AUClast, HβC Mean [2, 6] [ng·h/mL]	Cmax, HβC Mean [2, 6] [ng/mL]	AUClast, Normal Saline (NS) Mean [2, 7] [ng·h/mL]	Cmax, Normal Saline (NS) Mean [2, 7] [ng/mL]	AUClast, HβC Mean [2, 8] [ng·h/mL]	Cmax, HβC Mean [2, 8] [ng/mL]	AUClast, Normal Saline (NS) Mean [2, 9] [ng·h/mL]	Cmax, Normal Saline (NS) Mean [2, 9] [ng/mL]	also measured
COc1cccc2c1C(=O)c1c(O)c3c(c(O)c1C2=O)C[C@@](O)(C(=O)CO)C[C@@H]3O[C@H]1C[C@H](N)[C@H](O)[C@H](C)O1 [doxorubicin]															necrosis in the HCC within the territory of HAL (HCC; Day 1 post-treatment, tirapazamine 3 mg/kg, doxorubicin 10 mg/kg, transient left HAL): about 5%; pathological changes in HCCs (HCC; Day 7, 10 mg/kg with left HAL): Little to no pathological changes
N.N.[Cl][Pt][Cl] [CIS, cisplatin]															2-year OS rates [1]: 65.7%
Nc1nc2ccccc2[n+]([O-])n1 [SR4317]	78.09	80.62	dose proportional effect was observed	78.86%	88.17	20-30%	479.96	490.17	614.61	608.00	1210.97	1122.67	1535.52	1273.33	
2-hydroxypropyl-β-cyclodextrin [HPβCD]															lethality ([3]; single intravenous dose of up to 2 g/kg): not lethal; acute toxicity ([3]; up to 10 gram/kg intra-peritoneal (i.p.) injection): neither lethal nor did it produce any toxicity; adverse effects [4]: no adverse effects were reported; daily dose considered non-toxic ([5]; at least for 14 days): < 16 g; tolerability ([5]; daily oral doses of 4-8 g for at least 2 weeks): well tolerated and safe; adverse effects ([5]; oral daily doses of 16-24 g for 14 days, healthy volunteers): increased incidence of soft stools and diarrhea
Nc1nnc2ccccc2n1 [SR4330]	73.09	77.65	dose proportional effect was observed	74.37& %	89.31	20-30%	99.89	81.88	136.67	105.45	385.93	254.83	518.92	285.33	half-life compared with TPZ and SR4317 ([2]; rat plasma): longer than TPZ and SR4317
